Assay results: US20130142877A1, “PHARMACEUTICAL DOSAGE FORM COMPRISING ONE OR MORE ANTIRETROVIRAL ACTIVE INGREDIENTS” (EVONIK ROEHM GmbH, priority 2010, published 2013)

Experiment: Crystallinity analysis by X-ray diffraction (XRD)
Format: physicochemical
Conditions: pure API or extrudate after melt extrusion
Description: The mixtures of examples 1 to 4 were extrudated, comminuted and subsequently sifted through a sieve of 40 mesh (0.42 mm) and analyzed. X-ray diffraction analysis was carried out for crytallinity. Dissolution rate analysis of both active compound was carried out to check solubility enhancement.

Row | Compound | Crystallinity by X-ray diffraction (XRD pattern)
1 | Cc1cccc(C)c1OCC(=O)N[C@@H](Cc1ccccc1)[C@@H](O)C[C@H](Cc1ccccc1)NC(=O)[C@H](C(C)C)N1CCCNC1=O [Lopinavir] | crystalline form
2 | CC(C)c1nc(CN(C)C(=O)N[C@H](C(=O)N[C@@H](Cc2ccccc2)C[C@H](O)[C@H](Cc2ccccc2)NC(=O)OCc2cncs2)C(C)C)cs1 [Ritonavir] | crystalline form
